Assay results reported in ChEMBL document CHEMBL1201862, “PubChem BioAssay data set” (2004).
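Assay format: 96-well plates, 48-hour exposure. GI50: concentration for 50% inhibition of growth.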 The source made the active and inactive calls. No stated cut-off is given here; in the data, active = GI50 up to about 1.1 µM and inactive = higher.

Legend:
Test in all cases: NCI anticancer screen, dose series, 48 h
SK-MEL-28 = test system: SK-MEL-28
SNB-75 = test system: SNB-75
HT-29 = test system: HT-29
UO-31 = test system: UO-31
SK-MEL-5 = test system: SK-MEL-5
SR = test system: SR
NCI-H460 = test system: NCI-H460
SF-539 = test system: SF-539
HCT-116 = test system: HCT-116
HCC 2998 = test system: HCC 2998
RXF 393 = test system: RXF 393
K562 = test system: K562
IGROV-1 = test system: IGROV-1
RPMI-8226 = test system: RPMI-8226
CAKI-1 = test system: CAKI-1

Measured: GI50

O=C1CC2C(=O)N(Cc3ccccc3)C1C=C2S(=O)(=O)c1ccccc1 (stereo unspecified)
inactive: SK-MEL-28 > 100 µM | SNB-75 > 100 µM | HT-29 > 100 µM | UO-31 > 100 µM | SK-MEL-5 > 100 µM | SR > 100 µM | NCI-H460 > 100 µM | SF-539 > 100 µM | HCT-116 > 100 µM | HCC 2998 > 100 µM | RXF 393 > 100 µM | K562 > 100 µM | IGROV-1 > 100 µM

Cc1c(CCl)c(=O)oc2c(C)c3occ(CCl)c(=O)c3cc12
inactive: SK-MEL-28 17.5 µM | SNB-75 17.2 µM | UO-31 17.5 µM | RPMI-8226 8.69 µM | SK-MEL-5 > 100 µM | NCI-H460 > 100 µM | SF-539 21 µM | HCC 2998 > 100 µM | RXF 393 15.7 µM | K562 6.43 µM | IGROV-1 20.3 µM

N#CCc1nnc(N)o1
inactive: SK-MEL-28 > 100 µM | SNB-75 > 100 µM | UO-31 > 100 µM | CAKI-1 > 100 µM | RPMI-8226 > 100 µM | SR > 100 µM | SF-539 > 100 µM | HCT-116 > 100 µM | K562 > 100 µM | IGROV-1 > 100 µM

C=C1C[C@]23CCC4C(C)(C)C(=O)CC[C@]4(C)C2C[C@H]1C(O)C3=O (stereo partly specified)
inactive: SK-MEL-28 > 75 µM | SNB-75 > 75 µM | UO-31 > 75 µM | RPMI-8226 > 75 µM | SK-MEL-5 > 75 µM | SR > 75 µM | SF-539 > 75 µM | RXF 393 > 75 µM | K562 > 75 µM | IGROV-1 > 75 µM

CCN1CCC(O)(c2ccc(OC)cc2)C(C(=O)c2ccc(OC)cc2)C1 (stereo unspecified)
inactive: SK-MEL-28 3.25 µM | SNB-75 16.4 µM | HT-29 22 µM | UO-31 18.4 µM | CAKI-1 17.2 µM | RPMI-8226 4.25 µM | SK-MEL-5 15.3 µM | SR 22.7 µM | NCI-H460 24 µM | SF-539 17 µM | HCT-116 22.8 µM | HCC 2998 19.4 µM | K562 26.1 µM | IGROV-1 > 100 µM

CCc1cccc(CC)c1NC(=O)CC1SC(N)=NC1=O (stereo unspecified)
inactive: SK-MEL-28 > 100 µM | SNB-75 > 100 µM | HT-29 > 100 µM | UO-31 > 100 µM | RPMI-8226 > 100 µM | SK-MEL-5 > 100 µM | SR 97.5 µM | NCI-H460 > 100 µM | SF-539 > 100 µM | HCT-116 > 100 µM | HCC 2998 > 100 µM | RXF 393 > 100 µM | K562 > 100 µM | IGROV-1 > 100 µM

O=C(COc1ccc(Cl)cc1)N1N=C(c2ccc([N+](=O)[O-])o2)CC1(O)c1ccccc1 (stereo unspecified)
inactive: SK-MEL-28 12.2 µM | SNB-75 > 10 µM | HT-29 4.81 µM | UO-31 11.4 µM | CAKI-1 17.4 µM | RPMI-8226 2.28 µM | SR 2.59 µM | NCI-H460 11.1 µM | SF-539 13.1 µM | HCT-116 5.27 µM | HCC 2998 4.11 µM | K562 3.72 µM | IGROV-1 6.24 µM

CCCCC/C=C1\CCC(CN(C)C)C1=O (stereo unspecified)
inactive: SK-MEL-28 9.89 µM | SNB-75 16.2 µM | HT-29 28.2 µM | UO-31 17 µM | CAKI-1 7.05 µM | SK-MEL-5 18.2 µM | SR 3.79 µM | NCI-H460 31.5 µM | SF-539 10.9 µM | HCT-116 11.8 µM | HCC 2998 16.9 µM | K562 1.94 µM | IGROV-1 17.5 µM
active: RPMI-8226 0.386 µM

C/C=C/C=N/N(C(=O)c1cc([N+](=O)[O-])cc([N+](=O)[O-])c1)C1=NN=C(c2ccccc2)C(c2ccccc2)N1 (stereo unspecified)
inactive: SK-MEL-28 97.7 µM | SNB-75 > 100 µM | HT-29 35.6 µM | UO-31 43.9 µM | CAKI-1 > 100 µM | RPMI-8226 24.4 µM | SK-MEL-5 27.2 µM | NCI-H460 91.2 µM | SF-539 42.5 µM | HCT-116 30.2 µM | HCC 2998 34 µM | RXF 393 > 100 µM | K562 52.8 µM | IGROV-1 > 100 µM

Cc1cccc(C)c1NC(=O)CCCC(=O)C1/C(=N/NC(=O)CC#N)CCC/C1=N\NC(=O)CC#N (stereo unspecified)
inactive: SK-MEL-28 > 100 µM | SNB-75 > 100 µM | HT-29 > 100 µM | UO-31 > 100 µM | CAKI-1 > 100 µM | RPMI-8226 > 100 µM | SK-MEL-5 > 100 µM | SR > 100 µM | NCI-H460 > 100 µM | SF-539 > 100 µM | HCT-116 > 100 µM | HCC 2998 > 100 µM | K562 > 100 µM | IGROV-1 > 100 µM

COC(=O)C(C(=O)C(=O)Nc1c(Cl)cc([N+](=O)[O-])cc1Cl)c1nc2cc(C)c(C)cc2nc1O (stereo unspecified)
inactive: SNB-75 86.5 µM | HT-29 > 100 µM | UO-31 > 100 µM | CAKI-1 > 100 µM | RPMI-8226 > 100 µM | NCI-H460 > 100 µM | SF-539 > 100 µM | HCT-116 > 100 µM | HCC 2998 > 100 µM | RXF 393 > 100 µM | K562 > 100 µM | IGROV-1 > 100 µM

COc1ccc(C2=C3c4cc(OC)c(OC)cc4CCN3C(=S)SS2)cc1OC
inactive: SK-MEL-28 70.6 µM | SNB-75 25.1 µM | HT-29 72.8 µM | UO-31 > 100 µM | CAKI-1 77.6 µM | RPMI-8226 63.2 µM | SK-MEL-5 13.3 µM | NCI-H460 > 100 µM | SF-539 > 100 µM | HCT-116 > 100 µM | HCC 2998 > 100 µM | RXF 393 92.3 µM | K562 71 µM | IGROV-1 > 100 µM

CC(C)(C)OC1=C(OC(C)(C)C)C(O)(c2ccc(Cl)cc2)C1=O (stereo unspecified)
inactive: SK-MEL-28 > 100 µM | SNB-75 99.3 µM | HT-29 > 100 µM | UO-31 > 100 µM | RPMI-8226 > 100 µM | SK-MEL-5 > 100 µM | SR > 100 µM | NCI-H460 > 100 µM | SF-539 > 100 µM | HCC 2998 > 100 µM | RXF 393 > 100 µM | K562 > 100 µM | IGROV-1 > 100 µM

Cc1cc2c3ccccc3n(C)c2c2c1C(=O)c1ccccc1C2=O
inactive: SK-MEL-28 18.6 µM | SNB-75 29.2 µM | HT-29 24.9 µM | UO-31 10.5 µM | CAKI-1 21.9 µM | RPMI-8226 6.3 µM | SR 6.24 µM | SF-539 > 100 µM | HCT-116 14.8 µM | HCC 2998 18.3 µM | K562 20.4 µM | IGROV-1 19.4 µM

CCCCCCCc1cc(OC(=O)c2c(C)cc(OC)cc2O)cc(O)c1C(=O)O
inactive: SK-MEL-28 20.1 µM | SNB-75 19 µM | HT-29 32.5 µM | UO-31 16.9 µM | CAKI-1 22.5 µM | RPMI-8226 22.6 µM | SK-MEL-5 21.6 µM | NCI-H460 19.3 µM | SF-539 17.6 µM | HCC 2998 20.3 µM | RXF 393 22 µM | K562 33.9 µM | IGROV-1 22.7 µM
